Test results published in patent publication US20080175892A1, “Nanostructure-Drug Conjugates” (priority 2006, published 2008).

Assay: Aggregation in aqueous solution by particle-size analyzer (light scattering)
Format: physicochemical
Conditions: aqueous solution (10% DMSO), 4 and 0.04 μg/mL solutions
Source text: Thus, the aggregation properties of 6 and paclitaxel were studied as a function of concentration in aqueous solution (10% DMSO) using a Brookhaven 90Plus submicrometer particle-size analyzer.

light scattering (aggregation): did not show any scattering
Compound: CC(=O)O[C@H]1C(=O)[C@@]2(C)[C@H]([C@H](OC(=O)c3ccccc3)[C@]3(O)C[C@H](OC(=O)[C@H](O)[C@@H](NC(=O)c4ccccc4)c4ccccc4)C(C)=C1C3(C)C)[C@]1(OC(C)=O)CO[C@@H]1C[C@@H]2O [paclitaxel, Paclitaxel]
